Values of other authors in patent US20170281506A1, “COMPOSITION FOR TOPICAL APPLICATION FOR PREVENTING HAIR LOSS AND STIMULATING HAIR GROWTH” (priority 2011, published 2017).

Test system: men
Details: oral, treated constantly for two years

CC(C)(C)NC(=O)[C@H]1CC[C@H]2[C@@H]3CC[C@H]4NC(=O)C=C[C@]4(C)[C@H]3CC[C@]12C [Finasteride, finasteride]
participants who maintained or increased the number of hairs after the treatment: 83% | participants who showed no hair loss: 17%
